Where two headings read alike, the source gives them in different places.
Assays:
[1] = test system: 229E human corona virus (hCoV); experiment: 229E Cellular Assay (MRC5), live virus assay, ATPlite; assay type: cell-based, hCoV-229E; settings: read-out: EC50 (229E)
SARS-CoV-2 3CL-protease = SARS-CoV-2 3CL-protease (Severe acute respiratory syndrome coronavirus 2 (2019-nCoV) (SARS-CoV-2), UniProt P0DTD1); experiment: biochemical
SARS-CoV-2 USA-WA1/2020 = experiment: SARS-CoV-2 Cellular Assay (Vero 76), inhibition of CPE, neutral red; assay type: cell-based; settings: Severe acute respiratory syndrome coronavirus 2, 144 h; Vero 76 cells infected with SARS-CoV-2 USA-WA1/2020, day 6, neutral red CPE
in vitro = settings: African green monkey
[2] = recombinant SARS-CoV-2 3CL-protease 10 nM, 30 min preincubation, read-out: FRET IC50
[3] = Human coronavirus 229E, MRC5, 144 h, MRC-5 cells, hCoV-229E MOI 0.05, 6 days, ATPlite

Row | Structure (SMILES) | IC50 (SARS-CoV-2 3CL-protease; [2]) | EC50 [1, 3] | further results
1 | CC(C)C[C@H]1C(=O)N2C[C@]3(C[C@H]2C#N)C(=O)Nc2ccc(cc23)C=CCCCN1C(=O)OCc1ccccc1 [Example 1] | < 100 nM | – | EC50 ([1]; MRC-5 cells, hCoV-229E MOI 0.05, 6 days, ATPlite): 100 to 1000 nM
2 | CC(C)C[C@H]1C(=O)N2C[C@]3(C[C@H]2C#N)C(=O)Nc2ccc(cc23)CCCCCN1C(=O)OCc1ccccc1 [Example 2] | < 100 nM | 100 to 1000 nM | –
3 | CC(C)C[C@H]1C(=O)N2C[C@]3(C[C@H]2C#N)C(=O)Nc2ccc(cc23)/C=C\CCN1C(=O)OCc1ccccc1 [Example 3] | < 100 nM | – | EC50 ([1]; Human coronavirus 229E, MRC5, 144 h): 100 to 1000 nM
4 | CC(C)C[C@H]1C(=O)N2C[C@]3(C[C@H]2C#N)C(=O)Nc2ccc(cc23)CCCCCN1C(=O)c1cc2c(F)cc(F)cc2[nH]1 [Example 4] | < 100 nM | < 100 nM | EC50 (SARS-CoV-2 USA-WA1/2020): < 1000 nM; CC50 (in vitro): 1000 to 50000 nM
5 | CC(C)C[C@H]1C(=O)N2C[C@]3(C[C@H]2C#N)C(=O)Nc2ccc(cc23)CCCCCN1C(=O)c1cc2c(F)cc(F)c(F)c2[nH]1 [Example 5] | < 100 nM | < 100 nM | EC50 (SARS-CoV-2 USA-WA1/2020): < 1000 nM; CC50 (in vitro): 1000 to 50000 nM
6 | CC(C)C[C@H]1C(=O)N2C[C@]3(C[C@H]2C#N)C(=O)Nc2ccc(cc23)CCCCCN1C(=O)c1cc2ccc(C(F)(F)F)cc2[nH]1 [Example 6] | 100 to 1000 nM | < 100 nM | –
7 | CC(C)C[C@H]1C(=O)N2C[C@]3(C[C@H]2C#N)C(=O)Nc2ccc(cc23)CCCCCN1C(=O)c1cn(-c2ccccc2)nn1 [Example 7] | < 100 nM | < 100 nM | EC50 (SARS-CoV-2 USA-WA1/2020): < 1000 nM; CC50 (in vitro): 1000 to 50000 nM
8 | CC(C)C[C@H]1C(=O)N2C[C@]3(C[C@H]2C#N)C(=O)Nc2ccc(cc23)CCCCCCN1C(=O)c1cc2c(F)cc(F)cc2[nH]1 [Example 8] | 100 to 1000 nM | 100 to 1000 nM | –
9 | N#C[C@@H]1C[C@]23CN1C(=O)[C@H](Cc1ccccc1)N(C(=O)c1cc4c(F)cc(F)cc4[nH]1)CCCCCc1ccc(c2c1)NC3=O [Example 9] | < 100 nM | < 100 nM | EC50 (SARS-CoV-2 USA-WA1/2020): < 1000 nM; CC50 (in vitro): 1000 to 50000 nM
10 | N#C[C@@H]1C[C@]23CN1C(=O)[C@H](Cc1ccccc1)N(C(=O)c1cn(-c4ccc(F)cc4)nn1)CCCCCc1ccc(c2c1)NC3=O [Example 10] | < 100 nM | – | EC50 (SARS-CoV-2 USA-WA1/2020): < 1000 nM; CC50 (in vitro): 1000 to 50000 nM
11 | CC(C)C[C@H]1C(=O)N2C[C@]3(C[C@H]2C#N)C(=O)Nc2ccc(cc23)CCCCCN1C(=O)c1nnn(-c2ccccc2)n1 [Example 11] | < 100 nM | 100 to 1000 nM | –
12 | CC(C)C[C@H]1C(=O)N2C[C@]3(C[C@H]2C#N)C(=O)Nc2ccc(cc23)CCCCCN1C(=O)c1cn(C2CCC2)nn1 [Example 12] | < 100 nM | < 100 nM | –
13 | CC(C)C[C@H]1C(=O)N2C[C@]3(C[C@H]2C#N)C(=O)Nc2ccc(cc23)CCCCCN1C(=O)c1nnc(-c2ccccc2)[nH]1 [Example 13] | – | 100 to 1000 nM | IC50 (SARS-CoV-2 3CL-protease): 100 to 1000 nM
14 | CC(C)C[C@H]1C(=O)N2C[C@]3(C[C@H]2C#N)C(=O)Nc2ccc(cc23)CCCCCN1C(=O)c1cn(C2CC2)nn1 [Example 14] | < 100 nM | < 100 nM | EC50 (SARS-CoV-2 USA-WA1/2020): < 1000 nM; CC50 (in vitro): 1000 to 50000 nM
15 | CCCC[C@H]1C(=O)N2C[C@]3(C[C@H]2C#N)C(=O)Nc2ccc(cc23)CCCCCN1C(=O)c1cc2c(F)cc(F)cc2[nH]1 [Example 15] | < 100 nM | < 100 nM | –
16 | CCCC[C@H]1C(=O)N2C[C@]3(C[C@H]2C#N)C(=O)Nc2ccc(cc23)CCCCCN1C(=O)c1cn(-c2cc(F)c(F)cc2F)nn1 [Example 16] | < 100 nM | < 100 nM | –
17 | CC(C)C[C@H]1C(=O)N2C[C@]3(C[C@H]2C#N)C(=O)Nc2ccc(cc23)CCCCCN1C(=O)c1cnn(C(C)(C)C)c1 [Example 17] | < 100 nM | < 100 nM | –
18 | CC(C)C[C@H]1C(=O)N2C[C@]3(C[C@H]2C#N)C(=O)Nc2ccc(cc23)CCCCCN1C(=O)c1cnn(-c2ccc(C(F)(F)F)cc2)c1 [Example 18] | < 100 nM | < 100 nM | –
19 | CCCC[C@H]1C(=O)N2C[C@]3(C[C@H]2C#N)C(=O)Nc2ccc(cc23)CCCCCN1C(=O)c1cc2c(F)cc(F)c(F)c2[nH]1 [Example 19] | < 100 nM | < 100 nM | –
20 | CC(C)(C)C[C@H]1C(=O)N2C[C@]3(C[C@H]2C#N)C(=O)Nc2ccc(cc23)CCCCCN1C(=O)c1cc2c(F)cc(F)cc2[nH]1 [Example 20] | < 100 nM | < 100 nM | –
21 | CC(C)C[C@H]1C(=O)N2C[C@]3(C[C@H]2C#N)C(=O)Nc2ccc(cc23)CCCCCN1C(=O)c1cnn(-c2ccccc2C(F)(F)F)c1 [Example 21] | < 100 nM | < 100 nM | –
22 | CC(C)C[C@H]1C(=O)N2C[C@]3(C[C@H]2C#N)C(=O)Nc2ccc(cc23)CCCCCN1C(=O)c1cnn(-c2ccccc2Cl)c1 [Example 22] | < 100 nM | < 100 nM | –
23 | CC(C)C[C@H]1C(=O)N2C[C@]3(C[C@H]2C#N)C(=O)Nc2ccc(cc23)CCCCCN1C(=O)c1cnn(-c2ccc(F)cc2F)c1 [Example 23] | < 100 nM | < 100 nM | –
24 | CC(C)C[C@H]1C(=O)N2C[C@]3(C[C@H]2C#N)C(=O)Nc2ccc(cc23)CCCCCN1C(=O)C(=O)NC1(c2ccc(F)cc2F)CC1 [Example 24] | < 100 nM | < 100 nM | –
25 | CC(C)C[C@H]1C(=O)N2C[C@]3(C[C@H]2C#N)C(=O)Nc2ccc(cc23)CCCCCN1C(=O)c1cnn(-c2ccc(Cl)cc2Cl)c1 [Example 25] | < 100 nM | – | –
26 | CC(C)C[C@H]1C(=O)N2C[C@]3(C[C@H]2C#N)C(=O)Nc2ccc(cc23)C(O)CCCCN1C(=O)c1cc2c(F)cc(F)cc2[nH]1 (stereo partly shown) [Example 26] | < 100 nM | < 100 nM | –
27 | CC(C)C[C@H]1C(=O)N2C[C@]3(C[C@H]2C#N)C(=O)Nc2ccc(cc23)C(=O)CCCCN1C(=O)c1cc2c(F)cc(F)cc2[nH]1 [Example 27] | < 100 nM | < 100 nM | –
28 | CC(C)C[C@H]1C(=O)N2C[C@]3(C[C@H]2C#N)C(=O)Nc2ccc(cc23)OCCCCN1C(=O)c1cc2c(F)cc(F)cc2[nH]1 [Example 28] | < 100 nM | < 100 nM | –
29 | CC(C)C[C@H]1C(=O)N2C[C@]3(C[C@H]2C#N)C(=O)Nc2ccc(cc23)OCCCCN1C(=O)C(=O)NC1(c2ccc(F)cc2F)CC1 [Example 29] | < 100 nM | – | –

Source: patent US12398147B2, “Macrocyclic spiropyrrolidine derived antiviral agents” (Enanta Pharmaceuticals, Inc., priority 2021, dated 2025)
